From patent US11578074B2, “Nitrogenous heterocyclic compound, preparation method, intermediate, composition, and application” (SHANGHAI PHARMACEUTICALS HOLDING CO., LTD., priority 2017, dated 2023)

Legend:
ErbB2 kinase = target: T1, ErbB2 kinase (Homo sapiens, UniProt P04626); test: EGFR/ErbB2 enzymatic experiment (HTRF kinEASE-TK), ErbB2; format: biochemical; conditions: ErbB2 kinase 0.06 ng/μL, ATP 4 μM; read-out: Kinase IC50 (nM) in vitro ErbB2
T1 construct: The final concentration of ErbB2 kinase was 0.06 ng/μL

[1] = system: N87 (human gastric cancer cell NCI-N87); test: In vitro proliferation inhibition assay of cell lines (CellTiter-Glo), N87; format: cell-based; conditions: N87 cells, 72 hours
Summary of the method: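 Cells seeded overnight (BT-474 8.8×10^4 cells/mL, N87 6.6×10^4 cells/mL), then exposed to 9 compound concentrations in duplicate for 72 hours at 37° C, 5% CO2. Viability read by CellTiter-Glo luminescence.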

[2] = system: BT-474 (human breast cancer cell); test: In vitro proliferation inhibition assay of cell lines (CellTiter-Glo), BT-474; format: cell-based; conditions: BT-474 cells, 72 hours
Summary of the method: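 Cells were exposed to nine compound concentrations in duplicate for 72 h at 37 °C and 5% CO2. Viability was read with CellTiter-Glo reagent after equilibration at room temperature.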

CYP2D6 = target: T2, CYP2D6 (Homo sapiens, UniProt P10635); test: Direct inhibition (DI) of CYP2D6 in human liver microsomes; format: in vitro ADME; conditions: probe Dextromethorphan, human liver microsomes 0.2 mg/mL, 10 μM compound, read-out: Direct inhibition (DI) 2D6 (Dextromethorphan)
T2 construct: A system of 100 μL human liver microsomes; from tissue; host or cells: human liver microsomes
Summary of the method: (§1)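 Pooled human liver microsomes (0.2 mg/mL) with 1 mM NADPH and 10 μM test compound were incubated for 20 min with a mixed probe-substrate cocktail (midazolam 10 μM, testosterone 100 μM, dextromethorphan 10 μM, diclofenac 20 μM, phenacetin 100 μM, mephenytoin 100 μM). Relative enzyme activity came from metabolite formation versus DMSO control.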

CYP1A2 = target: T3, CYP1A2 (Homo sapiens, UniProt P05177); test: Direct inhibition (DI) of CYP1A2 in human liver microsomes; format: in vitro ADME; conditions: probe Phenacetin, human liver microsomes 0.2 mg/mL, 10 μM compound, read-out: Direct inhibition (DI) 1A2 (Phenacetin)
T3 construct: A system of 100 μL human liver microsomes; from tissue; host or cells: human liver microsomes
T3 sequence (P05177 1-516): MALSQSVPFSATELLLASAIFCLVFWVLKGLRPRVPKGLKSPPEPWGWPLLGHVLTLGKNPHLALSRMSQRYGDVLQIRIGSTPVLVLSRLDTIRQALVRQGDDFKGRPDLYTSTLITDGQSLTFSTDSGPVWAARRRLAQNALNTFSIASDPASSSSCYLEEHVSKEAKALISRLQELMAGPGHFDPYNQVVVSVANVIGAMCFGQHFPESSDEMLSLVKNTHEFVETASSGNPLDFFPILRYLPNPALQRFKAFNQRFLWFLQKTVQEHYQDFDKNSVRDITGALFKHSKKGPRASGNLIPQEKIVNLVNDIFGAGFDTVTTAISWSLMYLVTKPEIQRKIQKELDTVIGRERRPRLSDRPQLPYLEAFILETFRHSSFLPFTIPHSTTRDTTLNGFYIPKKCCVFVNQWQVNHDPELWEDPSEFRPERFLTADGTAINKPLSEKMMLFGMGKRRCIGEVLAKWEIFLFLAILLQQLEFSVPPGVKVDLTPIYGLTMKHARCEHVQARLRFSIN
Summary of the method: as §1

T2 sequence (P10635 whole entry): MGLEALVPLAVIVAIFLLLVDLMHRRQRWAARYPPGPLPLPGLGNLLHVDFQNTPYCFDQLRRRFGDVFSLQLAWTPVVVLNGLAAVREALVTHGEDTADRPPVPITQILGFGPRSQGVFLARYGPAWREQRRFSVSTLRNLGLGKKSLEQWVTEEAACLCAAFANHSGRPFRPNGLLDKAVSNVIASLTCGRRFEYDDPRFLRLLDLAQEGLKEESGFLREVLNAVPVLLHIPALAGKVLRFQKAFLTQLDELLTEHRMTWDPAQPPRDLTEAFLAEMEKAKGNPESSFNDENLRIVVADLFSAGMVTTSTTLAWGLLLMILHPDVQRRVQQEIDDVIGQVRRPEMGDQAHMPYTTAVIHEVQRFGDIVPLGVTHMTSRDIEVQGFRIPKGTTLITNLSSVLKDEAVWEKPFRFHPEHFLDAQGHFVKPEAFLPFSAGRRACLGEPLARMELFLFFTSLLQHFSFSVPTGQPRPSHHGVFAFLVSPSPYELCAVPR
T1 sequence (P04626 23-1255): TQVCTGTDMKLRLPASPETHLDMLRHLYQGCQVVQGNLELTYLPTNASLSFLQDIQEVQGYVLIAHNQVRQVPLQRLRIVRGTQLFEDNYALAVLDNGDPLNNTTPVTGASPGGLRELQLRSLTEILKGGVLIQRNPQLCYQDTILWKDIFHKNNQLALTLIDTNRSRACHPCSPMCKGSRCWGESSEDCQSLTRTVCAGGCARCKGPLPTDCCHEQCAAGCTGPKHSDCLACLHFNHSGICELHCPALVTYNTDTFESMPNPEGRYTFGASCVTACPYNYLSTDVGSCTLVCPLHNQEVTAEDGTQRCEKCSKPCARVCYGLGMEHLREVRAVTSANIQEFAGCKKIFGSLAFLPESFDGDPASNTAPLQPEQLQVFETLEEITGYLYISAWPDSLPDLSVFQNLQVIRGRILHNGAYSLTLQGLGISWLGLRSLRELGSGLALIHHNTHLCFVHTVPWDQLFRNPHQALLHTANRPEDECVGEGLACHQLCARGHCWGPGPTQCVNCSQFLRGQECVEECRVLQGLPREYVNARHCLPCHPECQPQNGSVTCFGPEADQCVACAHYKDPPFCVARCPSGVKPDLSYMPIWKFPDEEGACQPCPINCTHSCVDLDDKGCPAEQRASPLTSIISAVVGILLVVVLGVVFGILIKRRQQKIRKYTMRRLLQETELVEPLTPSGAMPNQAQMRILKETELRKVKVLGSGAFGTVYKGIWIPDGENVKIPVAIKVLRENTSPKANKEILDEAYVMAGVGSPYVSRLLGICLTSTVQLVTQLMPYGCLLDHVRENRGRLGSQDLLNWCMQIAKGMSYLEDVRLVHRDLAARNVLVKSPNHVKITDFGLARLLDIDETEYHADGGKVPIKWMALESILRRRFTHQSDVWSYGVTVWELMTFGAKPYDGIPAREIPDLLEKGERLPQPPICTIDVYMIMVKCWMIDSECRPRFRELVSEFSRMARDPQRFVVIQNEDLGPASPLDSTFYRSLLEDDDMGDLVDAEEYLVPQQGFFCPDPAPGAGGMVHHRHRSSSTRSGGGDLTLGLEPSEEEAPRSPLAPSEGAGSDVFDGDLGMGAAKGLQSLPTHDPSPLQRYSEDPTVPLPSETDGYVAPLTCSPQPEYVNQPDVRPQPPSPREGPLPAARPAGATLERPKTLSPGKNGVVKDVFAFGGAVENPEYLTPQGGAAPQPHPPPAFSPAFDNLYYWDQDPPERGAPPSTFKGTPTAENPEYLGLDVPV

Structure (SMILES)	IC50 (ErbB2 kinase) [nM]	IC50 [1] [nM]	IC50 [2] [nM]	inhibition at 20 min, 10 µM (CYP2D6) [%]	inhibition at 20 min, 10 µM (CYP1A2) [%]
CCOc1cc2ncnc(Nc3ccc(Oc4ccn5ncnc5c4)c(C)c3)c2cc1NC(=O)/C=C/[C@H]1CCCN1C [Final product of Embodiment 22, (R,E)-N-(4-((4-([1,2,4]triazolo[1,5-a]pyridin-7-yloxy)-3-methylphenyl)amino)-7-ethoxyquinazolin-6-yl)-3-(1-methylpyrrolidin-2-yl)acrylamide]	0.37	0.68	1	48	14
CCOc1cc2ncnc(Nc3ccc(Oc4ccn5ncnc5c4)c(C)c3)c2cc1NC(=O)/C(F)=C/[C@H]1CCCN1C [Final product of Embodiment 45]	1.8	1.3	2.1	39	8
